Results taken from US20250268852A1, “MICROBIOTA IMPROVING AGENT” (SANYO CHEMICAL INDUSTRIES, LTD., priority 2022, published 2025).
Peptide text beside a SMILES is read from it.

Assay: Amount of magnesium captured per 100 g of substance (X), ion-selective electrode method
Format: physicochemical
Method: As for the substance (X), the amount of magnesium captured per 100 g of the substance (X) is preferably 1 g or more, as measured by the ion-selective electrode method.
When the substance (X) is a hydrate, 100 g of the substance (X) refers to 100 g by weight excluding hydration water.
The measurement by the ion-selective electrode method is performed using 2 mM of the substance (X) relative to a 1 mM aqueous MgCl2 solution having a temperature of 20° C. and a pH of 7.
Each substance (X) was subjected to measurement of the amount (g) of magnesium captured per 100 g of the substance (X) by the ion-selective electrode method as follows. For (X-5), the amount of magnesium captured per 100 g of Na2WO4 contained in (X-5) was measured. For (X-16), the amount of magnesium captured per 100 g of adenosine triphosphate disodium contained in (X-16) was measured.
The measurement by the ion-selective electrode method was performed using 2 mM of the substance (X) relative to a 1 mM aqueous MgCl2 solution having a temperature of 20° C. and a pH of 7.

SMILES	Amount of magnesium (g) captured per 100 g of substance (X) [g]
Nc1ncnc2c1ncn2[C@@H]1O[C@H](COP(=O)([O-])OP(=O)([O-])OP(=O)(O)O)[C@@H](O)[C@H]1O.O.O.O.[Na+].[Na+] [Example X-16, Adenosine triphosphate disodium trihydrate]	5
O.O.[Na+].[Na+].[O]=[W](=[O])([O-])[O-] [Example X-5, Sodium tungstate dihydrate]	2
CC(=O)CC(=O)c1ccccc1 [Example X-3, Benzoylacetone]	3
O=C[C@H](O)[C@@H](O)[C@H](O)[C@H](O)C(=O)O [Example X-11, Glucuronic acid]	15
O=C(O)CN(CCN(CC(=O)O)CC(=O)O)CC(=O)O [Example X-12, Ethylenediaminetetraacetic acid]	10
O=C(O)C(O)C(O)C(=O)O (stereo not shown) [Example X-15, Tartaric acid]	9
N[C@@H](CCC(=O)O)C(=O)O [Example X-7, Glutamic acid]	2
O=C(O)[C@H](O)[C@@H](O)[C@H](O)[C@H](O)CO [Example X-10, Gluconic acid]	30
O=C(O)CNCC(=O)O [Example X-13, Iminodiacetic acid]	8
O=C(O)CC(O)C(=O)O (stereo not shown) [Example X-8, Malic acid]	15
NCC(=O)NCC(=O)O [Example X-6, Glycylglycine] (H-Gly-Gly-OH)	2
CC(=O)CCC(=O)O [Example X-4, Levulinic acid]	2
CC(=O)CC(C)=O [Example X-2, Acetylacetone]	3
Oc1cccc2cccnc12 [Example X-14, 8-Quinolinol]	2
O=P([O-])([O-])OP(=O)([O-])OP(=O)([O-])[O-].[Na+].[Na+].[Na+].[Na+].[Na+] [Example X-1, Pentasodium triphosphate]	5
O=C(O)CC(O)(CC(=O)O)C(=O)O [Example X-9, Citric acid]	20
